Measured values published in patent US4487965A, “Trans-3-(4'-tert.-Butylcyclohex-1'yl)-2-methyl-1-dialkylaminopropanes, their preparation and their use as drugs” (BASF Aktiengesellschaft, priority 1982, dated 1984).

Columns and labels:
[1] = system: Trichophyton mentagroph. ATCC 4807; experiment: in vitro antimicrobial activity, agar dilution test (minimum inhibitory concentrations); assay type: cell-based, Trichophyton mentagrophytes
Description: (§1) The in vitro antimicrobial activity against microorganisms was determined in the agar dilution test (P. Klein, loc. cit.).

[2] = system: Trichophyton mentagrophytes; experiment: guinea pig trichophytosis model, external application; assay type: in vivo; details: externally once daily
Description: Furthermore, the novel compounds were tested in the guinea pig trichophyt is model (Trichophyton mentagrophytes; cf. Heffter-Heubner: Handbuch der experimentellen Pharmakologie, Volume XVI/11A, Springer Verlag, Berlin, Heidelberg, New York, 1967), in which the compounds were applied externally in the form of 0.2, 0.5 and 1% strength suspensions. Application was effected once daily for 4 and 7 days respectively. After the 4th and 7th day of treatment, and 7 days after the last treatment, hairs or scales were pulled off at from 3 to 5 points in the infected area in each animal, and were incubated in Sabourand dextrose bouillon.
Evaluation was carried out by monitoring fungal growth after incubation for 8 days.

[3] = system: Epidermophyton floccosum ATCC 10227; experiment: in vitro antimicrobial activity, agar dilution test (minimum inhibitory concentrations); assay type: cell-based
Description: as §1

[4] = system: Candida albicans ATCC 14052; experiment: as above; assay type: cell-based
Description: as §1

[5] = system: Mikrosporon ferrugineum CBS 317.31; experiment: as above; assay type: cell-based
Description: as §1

[6] = 0.2% suspension, 7 days after treatment
[7] = 1.0% suspension, 7 days after treatment

SMILES | Minimum inhibitory concentrations [1] | fraction of animals in which infection was observed ([2]; 0.2% suspension, 4 days) | fraction of animals in which infection was observed ([2]; 0.2% suspension, 7 days) | fraction of animals in which infection was observed [2, 6] | fraction of animals in which infection was observed ([2]; 0.5% suspension, 4 days) | fraction of animals in which infection was observed ([2]; 0.5% suspension, 7 days) | fraction of animals in which infection was observed ([2]; 0.5% suspension, 7 days after treatment) | fraction of animals in which infection was observed ([2]; 1.0% suspension, 4 days) | fraction of animals in which infection was observed ([2]; 1.0% suspension, 7 days) | fraction of animals in which infection was observed [2, 7] | Minimum inhibitory concentrations [3] | Minimum inhibitory concentrations [4] | Minimum inhibitory concentrations [5]
CCCN(CCC)CC(C)C[C@H]1CC[C@H](C(C)(C)C)CC1 (stereo partly drawn) [Example 1, trans-3-(4'-tert.-Butylcyclohex-1'-yl)-2-methyl-1-(N-di-n-propylamino)-propane] | < 0.125 | 3/5 | 2/5 | 1/5 | 0/5 | 0/5 | 0/5 | 1/5 | 0/5 | 0/5 | < 0.125 | < 0.125 | < 0.125
Cc1cccc(N(C)C(=S)Oc2ccc3ccccc3c2)c1 [Tolnaftate, reference compound] | – | – | – | – | – | – | – | 0/9 | 0/9 | 2/9 | – | – | –
Clc1ccccc1C(c1ccccc1)(c1ccccc1)n1ccnc1 [Clotrimazole, reference compound] | – | 3/5 | 3/5 | 3/5 | – | – | – | 2/5 | 0/5 | 3/5 | – | – | –
CCCN(CC)CC(C)C[C@H]1CC[C@H](C(C)(C)C)CC1 (stereo partly drawn) [Example 2, trans-3-(4'-tert.-Butylcyclohex-1'-yl)-2-methyl-1-(N-ethyl-N-n-propylamino)-propane] | 0.25 | – | – | – | – | – | – | – | – | – | 0.25 | 1 | < 0.125
